Reference: patent publication US20130157954A1, “METHODS FOR TREATMENT OR PROPHYLAXIS OF KIDNEY OR LIVER DYSFUNCTION” (NPS PHARMACEUTICALS, INC., priority 2010, published 2013)

Test: Example 1: liver biomarkers (total bilirubin, ALT, AST, ALP) in short bowel syndrome patients, every four weeks for 24 weeks; also sorted by >5% change from baseline
Format: in vivo, Human
Design: AST (SGOT) Change from Baseline Median / ALT (SGPT) Median / TOTAL BILIRUBIN Median / TOTAL BILIRUBIN Change from Baseline Median / ALT (SGPT) Change from Baseline Median / AST (SGOT) Median: unit not given here
Settings: for AST (SGOT) Change from Baseline Median / AST (SGOT) Median / TOTAL BILIRUBIN Change from Baseline Median / TOTAL BILIRUBIN Median / ALKALINE PHOSPHATASE Change from Baseline Median / ALT (SGPT) Change from Baseline Median / ALT (SGPT) Median: 0.10 mg/kg/day; for ALKALINE PHOSPHATASE change from baseline <−5%, number of patients / ALKALINE PHOSPHATASE change from baseline <−5%, percent of patients / ALKALINE PHOSPHATASE change from baseline >5%, number of patients / ALKALINE PHOSPHATASE change from baseline >5%, percent of patients / ALKALINE PHOSPHATASE change from baseline −5% <= and <=5%, number of patients / ALKALINE PHOSPHATASE change from baseline −5% <= and <=5%, percent of patients / ALT (SGPT) change from baseline <−5%, number of patients / ALT (SGPT) change from baseline <−5%, percent of patients / ALT (SGPT) change from baseline >5%, number of patients / ALT (SGPT) change from baseline >5%, percent of patients / ALT (SGPT) change from baseline −5% <= and <=5%, number of patients / ALT (SGPT) change from baseline −5% <= and <=5%, percent of patients / AST (SGOT) change from baseline <−5%, number of patients / AST (SGOT) change from baseline <−5%, percent of patients / AST (SGOT) change from baseline >5%, number of patients / AST (SGOT) change from baseline >5%, percent of patients / AST (SGOT) change from baseline −5% <= and <=5%, number of patients / AST (SGOT) change from baseline −5% <= and <=5%, percent of patients / TOTAL BILIRUBIN change from baseline <−5%, number of patients / TOTAL BILIRUBIN change from baseline <−5%, percent of patients / TOTAL BILIRUBIN change from baseline >5%, number of patients / TOTAL BILIRUBIN change from baseline >5%, percent of patients / TOTAL BILIRUBIN change from baseline −5% <= and <=5%, number of patients / TOTAL BILIRUBIN change from baseline −5% <= and <=5%, percent of patients: 0.1 mg/kg/day
Experimental: Human patients with short bowel syndrome were divided into three groups: a control group (16 total individuals) to receive placebo, an experimental group (35 total individuals) to receive teduglutide at 0.05 mg/kg/day throughout the study, and an experimental group (32 total individuals) to receive teduglutide at 0.1 mg/kg/day throughout the study. Patients were treated by subcutaneous injection of placebo or the appropriate dose of teduglutide. As individuals with short bowel syndrome are likely to experience associated liver and kidney disease, known biomarkers of liver and kidney function were monitored every four weeks, for 24 weeks. The liver biomarkers tested included total bilirubin, ALT and AST and ALP. The kidney biomarkers tested included urea nitrogen, creatinine and GFR. Before administration of placebo or teduglutide, diagnostic biomarker levels were tested to establish a baseline for each individual.
To visualize the effect of GLP-2 on the levels of the diagnostic biomarkers, the average change from baseline was calculated for the placebo and teduglutide treated groups for each visit after a baseline was established. The average change from baseline of each group is depicted in FIGS. 1-7. The numerical figures for each diagnostic biomarker at each time point are depicted in Table 1.
The efficacy of teduglutide in treating liver dysfunction was further tested by sorting the data into two groups: individuals with abnormal baseline values of liver diagnostic biomarkers; and individuals with normal baseline values of liver diagnostic biomarkers. The mean diagnostic biomarker change from baseline for these two groups is shown for ALT (FIGS. 5 and 6) and AST (FIGS. 7 and 8). […] These changes were significant when compared to baseline levels for the group, and when compared to placebo (see FIGS. 5 and 7).
The raw data for this sorting is reproduced in Table 2 below.

For `CC[C@H](C)[C@H](NC(=O)[C@H](Cc1ccccc1)NC(=O)[C@H](CC(=O)O)NC(=O)[C@H](CCCNC(=N)N)NC(=O)[C@H](C)NC(=O)[C@H](C)NC(=O)[C@H](CC(C)C)NC(=O)[C@H](CC(N)=O)NC(=O)[C@H](CC(=O)O)NC(=O)[C@H](CC(C)C)NC(=O)[C@@H](NC(=O)[C@@H](NC(=O)[C@H](CC(N)=O)NC(=O)[C@H](CCSC)NC(=O)[C@H](CCC(=O)O)NC(=O)[C@H](CC(=O)O)NC(=O)[C@H](CO)NC(=O)[C@H](Cc1ccccc1)NC(=O)[C@H](CO)NC(=O)CNC(=O)[C@H](CC(=O)O)NC(=O)CNC(=O)[C@@H](N)Cc1c[nH]cn1)[C@@H](C)O)[C@@H](C)CC)C(=O)N[C@@H](CC(N)=O)C(=O)N[C@@H](Cc1c[nH]c2ccccc12)C(=O)N[C@@H](CC(C)C)C(=O)N[C@H](C(=O)N[C@@H](CCC(N)=O)C(=O)N[C@H](C(=O)N[C@@H](CCCCN)C(=O)N[C@H](C(=O)N[C@H](C(=O)N[C@@H](CC(=O)O)C(=O)O)[C@@H](C)O)[C@@H](C)CC)[C@@H](C)O)[C@@H](C)CC` [teduglutide], the “AST (SGOT) Change from Baseline Median” value (DW4) was −5.0, the “AST (SGOT) Median” value (DW4) was 28.0 and the “TOTAL BILIRUBIN Change from Baseline Median” value (DW4) was −1.0. For the same compound, the “TOTAL BILIRUBIN Median” value (DW4) was 7.0, the “ALKALINE PHOSPHATASE Change from Baseline Median” value (DW8) was −20.0 and the “ALT (SGPT) Change from Baseline Median” value (DW8) was −8.0. The “AST (SGOT) Change from Baseline Median” value (DW8) was −5.0, the “AST (SGOT) Median” value (DW8) was 28.0 and the “TOTAL BILIRUBIN Change from Baseline Median” value (DW8) was −1.0. The “TOTAL BILIRUBIN Median” value (DW8) was 7.0, the “ALT (SGPT) Change from Baseline Median” value (DW12) was −11.0 and the “ALT (SGPT) Median” value (DW12) was 35.0. For the same compound, the “AST (SGOT) Change from Baseline Median” value (DW12) was −3.5, the “TOTAL BILIRUBIN Change from Baseline Median” value (DW12) was 0.0 and the “TOTAL BILIRUBIN Median” value (DW12) was 7.0. The “ALT (SGPT) Change from Baseline Median” value (DW16) was −10.0, the “ALT (SGPT) Median” value (DW16) was 30.0 and the “AST (SGOT) Change from Baseline Median” value (DW16) was −4.0. For the same compound, the “AST (SGOT) Median” value (DW16) was 30.0, the “TOTAL BILIRUBIN Change from Baseline Median” value (DW16) was −0.5 and the “TOTAL BILIRUBIN Median” value (DW16) was 7.5. For the same compound, the “ALKALINE PHOSPHATASE Change from Baseline Median” value (DW20) was −23.0, the “ALT (SGPT) Change from Baseline Median” value (DW20) was −9.0 and the “ALT (SGPT) Median” value (DW20) was 29.0. The “AST (SGOT) Change from Baseline Median” value (DW20) was −2.5, the “AST (SGOT) Median” value (DW20) was 30.0 and the “TOTAL BILIRUBIN Change from Baseline Median” value (DW20) was 0.0. The “TOTAL BILIRUBIN Median” value (DW20) was 7.0, the “ALKALINE PHOSPHATASE Change from Baseline Median” value (DW 24) was −21.0 and the “ALT (SGPT) Change from Baseline Median” value (DW 24) was −4.0. The “ALT (SGPT) Median” value (DW 24) was 37.0, the “AST (SGOT) Change from Baseline Median” value (DW 24) was −3.0 and the “AST (SGOT) Median” value (DW 24) was 32.0. The “TOTAL BILIRUBIN Change from Baseline Median” value (DW 24) was 0.0, the “TOTAL BILIRUBIN Median” value (DW 24) was 9.0 and the “ALKALINE PHOSPHATASE change from baseline <−5%, number of patients” value (week 4) was 17. The “ALKALINE PHOSPHATASE change from baseline <−5%, percent of patients” value (week 4) was “(53.1%)”, the “ALKALINE PHOSPHATASE change from baseline >5%, number of patients” value (week 4) was 11 and the “ALKALINE PHOSPHATASE change from baseline >5%, percent of patients” value (week 4) was “(34.4%)”. For the same compound, the “ALKALINE PHOSPHATASE change from baseline −5% <= and <=5%, number of patients” value (week 4) was 4, the “ALKALINE PHOSPHATASE change from baseline −5% <= and <=5%, percent of patients” value (week 4) was “(12.5%)” and the “ALT (SGPT) change from baseline <−5%, number of patients” value (week 4) was 20. The “ALT (SGPT) change from baseline <−5%, percent of patients” value (week 4) was “(62.5%)”, the “ALT (SGPT) change from baseline >5%, number of patients” value (week 4) was 10 and the “ALT (SGPT) change from baseline >5%, percent of patients” value (week 4) was “(31.3%)”. The “ALT (SGPT) change from baseline −5% <= and <=5%, number of patients” value (week 4) was 2, the “ALT (SGPT) change from baseline −5% <= and <=5%, percent of patients” value (week 4) was “(6.3%)” and the “AST (SGOT) change from baseline <−5%, number of patients” value (week 4) was 17. For the same compound, the “AST (SGOT) change from baseline <−5%, percent of patients” value (week 4) was “(53.1%)”, the “AST (SGOT) change from baseline >5%, number of patients” value (week 4) was 10 and the “AST (SGOT) change from baseline >5%, percent of patients” value (week 4) was “(31.3%)”. For the same compound, the “AST (SGOT) change from baseline −5% <= and <=5%, number of patients” value (week 4) was 4, the “AST (SGOT) change from baseline −5% <= and <=5%, percent of patients” value (week 4) was “(12.5%)” and the “TOTAL BILIRUBIN change from baseline <−5%, number of patients” value (week 4) was 16. For the same compound, the “TOTAL BILIRUBIN change from baseline <−5%, percent of patients” value (week 4) was “(50.0%)”, the “TOTAL BILIRUBIN change from baseline >5%, number of patients” value (week 4) was 12 and the “TOTAL BILIRUBIN change from baseline >5%, percent of patients” value (week 4) was “(37.5%)”. For the same compound, the “TOTAL BILIRUBIN change from baseline −5% <= and <=5%, number of patients” value (week 4) was 3, the “TOTAL BILIRUBIN change from baseline −5% <= and <=5%, percent of patients” value (week 4) was “(9.4%)” and the “ALKALINE PHOSPHATASE change from baseline <−5%, number of patients” value (week 8) was 24. The “ALKALINE PHOSPHATASE change from baseline <−5%, percent of patients” value (week 8) was “(75.0%)”, the “ALKALINE PHOSPHATASE change from baseline >5%, number of patients” value (week 8) was 5 and the “ALKALINE PHOSPHATASE change from baseline >5%, percent of patients” value (week 8) was “(15.6%)”. For the same compound, the “ALKALINE PHOSPHATASE change from baseline −5% <= and <=5%, number of patients” value (week 8) was 2, the “ALKALINE PHOSPHATASE change from baseline −5% <= and <=5%, percent of patients” value (week 8) was “(6.3%)” and the “ALT (SGPT) change from baseline <−5%, number of patients” value (week 8) was 20. For the same compound, the “ALT (SGPT) change from baseline <−5%, percent of patients” value (week 8) was “(62.5%)”, the “ALT (SGPT) change from baseline >5%, number of patients” value (week 8) was 8 and the “ALT (SGPT) change from baseline >5%, percent of patients” value (week 8) was “(25.0%)”. For the same compound, the “ALT (SGPT) change from baseline −5% <= and <=5%, number of patients” value (week 8) was 2, the “ALT (SGPT) change from baseline −5% <= and <=5%, percent of patients” value (week 8) was “(6.3%)” and the “AST (SGOT) change from baseline <−5%, number of patients” value (week 8) was 21. The “AST (SGOT) change from baseline <−5%, percent of patients” value (week 8) was “(65.6%)”, the “AST (SGOT) change from baseline >5%, number of patients” value (week 8) was 5 and the “AST (SGOT) change from baseline >5%, percent of patients” value (week 8) was “(15.6%)”. For the same compound, the “AST (SGOT) change from baseline −5% <= and <=5%, number of patients” value (week 8) was 4, the “AST (SGOT) change from baseline −5% <= and <=5%, percent of patients” value (week 8) was “(12.5%)” and the “TOTAL BILIRUBIN change from baseline <−5%, number of patients” value (week 8) was 16. The “TOTAL BILIRUBIN change from baseline <−5%, percent of patients” value (week 8) was “(50.0%)”, the “TOTAL BILIRUBIN change from baseline >5%, number of patients” value (week 8) was 7 and the “TOTAL BILIRUBIN change from baseline >5%, percent of patients” value (week 8) was “(21.9%)”. The “TOTAL BILIRUBIN change from baseline −5% <= and <=5%, number of patients” value (week 8) was 6, the “TOTAL BILIRUBIN change from baseline −5% <= and <=5%, percent of patients” value (week 8) was “(18.8%)” and the “ALKALINE PHOSPHATASE change from baseline <−5%, number of patients” value (week 12) was 19. For the same compound, the “ALKALINE PHOSPHATASE change from baseline <−5%, percent of patients” value (week 12) was “(59.4%)”, the “ALKALINE PHOSPHATASE change from baseline >5%, number of patients” value (week 12) was 10 and the “ALKALINE PHOSPHATASE change from baseline >5%, percent of patients” value (week 12) was “(31.3%)”. The “ALKALINE PHOSPHATASE change from baseline −5% <= and <=5%, number of patients” value (week 12) was 1, the “ALKALINE PHOSPHATASE change from baseline −5% <= and <=5%, percent of patients” value (week 12) was “(3.1%)” and the “ALT (SGPT) change from baseline <−5%, number of patients” value (week 12) was 20. The “ALT (SGPT) change from baseline <−5%, percent of patients” value (week 12) was “(62.5%)” and the “ALT (SGPT) change from baseline >5%, number of patients” value (week 12) was 7.
